Measurements: ChEMBL document CHEMBL1201862, “PubChem BioAssay data set” (2004)
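Briefly, cells in 96-well plates were exposed to five compound concentrations for 48 h, and endpoints were estimated by linear interpolation. GI50 marks 50% less growth.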 Active and inactive are the calls of the source. No stated cut-off is given here; in the data, active = GI50 up to about 1.1 µM and inactive = higher.

Legend:
Assay in all cases: NCI anticancer screen, dose series, 48 h
A498 = test system: A498
A549 = test system: A549
CAKI-1 = test system: CAKI-1
HCT-116 = test system: HCT-116
HCT-15 = test system: HCT-15
HT-29 = test system: HT-29
IGROV-1 = test system: IGROV-1
MOLT-4 = test system: MOLT-4
NCI-H23 = test system: NCI-H23
OVCAR-3 = test system: OVCAR-3
OVCAR-4 = test system: OVCAR-4
OVCAR-8 = test system: OVCAR-8
SF-268 = test system: SF-268
SF-295 = test system: SF-295
SK-OV-3 = test system: SK-OV-3
SN12C = test system: SN12C
HOP-92 = test system: HOP-92

| SMILES | GI50 (A498) | GI50 (A549) | GI50 (CAKI-1) | GI50 (HCT-116) | GI50 (HCT-15) [µM] | GI50 (HT-29) | GI50 (IGROV-1) | GI50 (MOLT-4) | GI50 (NCI-H23) | GI50 (OVCAR-3) | GI50 (OVCAR-4) | GI50 (OVCAR-8) | GI50 (SF-268) | GI50 (SF-295) | GI50 (SK-OV-3) | GI50 (SN12C) | GI50 (HOP-92) |
| --- | --- | --- | --- | --- | --- | --- | --- | --- | --- | --- | --- | --- | --- | --- | --- | --- | --- |
| O=C(O)\C=C/C=C/C=C/C=C/C(=O)O | > 100 µM (inactive) | > 100 µM (inactive) | > 100 µM (inactive) | > 100 µM (inactive) | > 100 | > 100 µM (inactive) | > 100 µM (inactive) | > 100 µM (inactive) | > 100 µM (inactive) | > 100 µM (inactive) | > 100 µM (inactive) | > 100 µM (inactive) | > 100 µM (inactive) | > 100 µM (inactive) | > 100 µM (inactive) | > 100 µM (inactive) | – |
| CC1=C(C(=O)Nc2ccc(Cl)c(Cl)c2)C(c2ccco2)C(C(=O)Nc2ccc(Cl)c(Cl)c2)=C(C)N1 | 12.8 µM (inactive) | 12.5 µM (inactive) | 14 µM (inactive) | 9.84 µM (inactive) | 11.5 | 14.4 µM (inactive) | 14.3 µM (inactive) | 4.98 µM (inactive) | 17.8 µM (inactive) | 7.98 µM (inactive) | 12.1 µM (inactive) | 11.2 µM (inactive) | 11.4 µM (inactive) | 7.91 µM (inactive) | 13.5 µM (inactive) | 11.6 µM (inactive) | 15.8 µM (inactive) |
| COc1cc2c(c(C)c1O)[C@H]1COc3ccccc3[C@H]1O2 | 24.9 µM (inactive) | 13.2 µM (inactive) | 9.04 µM (inactive) | 5.71 µM (inactive) | 4.27 | 17.7 µM (inactive) | 14.5 µM (inactive) | 14.7 µM (inactive) | 13.2 µM (inactive) | 21.9 µM (inactive) | 17.5 µM (inactive) | 20.9 µM (inactive) | 15.2 µM (inactive) | 27 µM (inactive) | 31.8 µM (inactive) | – | 19.5 µM (inactive) |
| CC(=O)N(C(C)=O)C1=C2c3ccccc3N(S(=O)(=O)c3ccccc3)C2n2c(=O)n(-c3ccccc3)c(=O)n2C1 (stereo not given) | – | 65.6 µM (inactive) | 27.5 µM (inactive) | 43.3 µM (inactive) | 30.4 | 59 µM (inactive) | 41.7 µM (inactive) | – | 26.5 µM (inactive) | 25.5 µM (inactive) | – | 23.3 µM (inactive) | > 100 µM (inactive) | 31.8 µM (inactive) | 32.8 µM (inactive) | 69.7 µM (inactive) | 24.2 µM (inactive) |
| Nc1cc2c(C3OC(CO)C(O)C3O)n[nH]c2c(=S)[nH]1 (stereo not given) | > 100 µM (inactive) | > 100 µM (inactive) | 54.3 µM (inactive) | > 100 µM (inactive) | 94 | > 100 µM (inactive) | > 100 µM (inactive) | > 100 µM (inactive) | > 100 µM (inactive) | – | 92.5 µM (inactive) | > 100 µM (inactive) | > 100 µM (inactive) | > 100 µM (inactive) | > 100 µM (inactive) | > 100 µM (inactive) | > 100 µM (inactive) |
| O=c1nc2sc3ccc4ccccc4c3n2nc1O | – | > 100 µM (inactive) | – | 78.9 µM (inactive) | – | 47.9 µM (inactive) | 67 µM (inactive) | 57.4 µM (inactive) | 71.1 µM (inactive) | 55.2 µM (inactive) | 28.8 µM (inactive) | 94.6 µM (inactive) | 40.4 µM (inactive) | 59.4 µM (inactive) | > 100 µM (inactive) | 86.5 µM (inactive) | – |
| COc1ccc(N2C(=O)C3C=CC(n4[nH]c(=O)n(Cc5ccccc5)c4=O)CC3C2=O)cc1 (stereo not given) | 86.7 µM (inactive) | > 100 µM (inactive) | > 100 µM (inactive) | > 100 µM (inactive) | > 100 | > 100 µM (inactive) | > 100 µM (inactive) | > 100 µM (inactive) | > 100 µM (inactive) | > 100 µM (inactive) | – | > 100 µM (inactive) | > 100 µM (inactive) | > 100 µM (inactive) | > 100 µM (inactive) | > 100 µM (inactive) | > 100 µM (inactive) |
| O=C1/C(=C/c2ccccc2Cl)COc2ccc(Br)cc21 | > 100 µM (inactive) | 97.3 µM (inactive) | – | 25.1 µM (inactive) | – | > 100 µM (inactive) | > 100 µM (inactive) | 18 µM (inactive) | > 100 µM (inactive) | 37.3 µM (inactive) | – | 56.9 µM (inactive) | > 100 µM (inactive) | 37.6 µM (inactive) | 27 µM (inactive) | – | 46.3 µM (inactive) |
| C/C(=N\O)C(CN1CCCCC1)C(c1ccccc1)c1c(O)c2ccccc2oc1=O (stereo not given) | > 100 µM (inactive) | > 100 µM (inactive) | > 100 µM (inactive) | > 100 µM (inactive) | – | > 100 µM (inactive) | > 100 µM (inactive) | – | > 100 µM (inactive) | > 100 µM (inactive) | > 100 µM (inactive) | > 100 µM (inactive) | > 100 µM (inactive) | 54.8 µM (inactive) | > 100 µM (inactive) | > 100 µM (inactive) | 62.1 µM (inactive) |
| N#Cc1sc2nc3c(c(-c4ccccc4)c2c1N)CCCC3 | > 100 µM (inactive) | > 100 µM (inactive) | > 100 µM (inactive) | 33.2 µM (inactive) | 60.5 | > 100 µM (inactive) | – | > 100 µM (inactive) | > 100 µM (inactive) | > 10 µM (inactive) | > 100 µM (inactive) | > 100 µM (inactive) | – | 22.1 µM (inactive) | 39.4 µM (inactive) | > 100 µM (inactive) | 30.1 µM (inactive) |
| CCOC(=O)CC(NC(=O)c1ccc(/N=N/N(C)C)cc1)C(=O)OCC (stereo not given) | > 100 µM (inactive) | > 100 µM (inactive) | > 100 µM (inactive) | > 100 µM (inactive) | > 100 | > 100 µM (inactive) | > 100 µM (inactive) | > 100 µM (inactive) | > 100 µM (inactive) | > 100 µM (inactive) | > 100 µM (inactive) | > 100 µM (inactive) | > 100 µM (inactive) | > 100 µM (inactive) | > 100 µM (inactive) | > 100 µM (inactive) | – |
| c1ccc(COc2cccc3cccnc23)cc1 | – | > 100 µM (inactive) | – | 83.6 µM (inactive) | – | 80.9 µM (inactive) | 85.7 µM (inactive) | > 100 µM (inactive) | 44 µM (inactive) | 63.5 µM (inactive) | 97.3 µM (inactive) | > 100 µM (inactive) | 28.4 µM (inactive) | > 100 µM (inactive) | > 100 µM (inactive) | > 100 µM (inactive) | 28.4 µM (inactive) |
| Nc1ccc(/C=C/c2ccnc3ccccc23)cc1 | – | 19.4 µM (inactive) | 21.9 µM (inactive) | 17.5 µM (inactive) | 21 | 23.4 µM (inactive) | 28.2 µM (inactive) | 7.76 µM (inactive) | 20 µM (inactive) | 15 µM (inactive) | 30 µM (inactive) | 21.8 µM (inactive) | 16.5 µM (inactive) | 16.1 µM (inactive) | – | – | 20.3 µM (inactive) |
| COC1OC(C)C(OCc2ccccc2)C(OS(=O)(=O)c2ccc(C)cc2)C1OS(=O)(=O)c1ccc(C)cc1 (stereo not given) | – | > 100 µM (inactive) | 53.5 µM (inactive) | > 100 µM (inactive) | > 100 | > 100 µM (inactive) | > 100 µM (inactive) | > 100 µM (inactive) | > 100 µM (inactive) | > 100 µM (inactive) | > 100 µM (inactive) | > 100 µM (inactive) | > 100 µM (inactive) | > 100 µM (inactive) | > 100 µM (inactive) | > 100 µM (inactive) | – |
| CCCc1nc(NC#N)nc(C(=O)Nc2ccccc2)c1CC | > 100 µM (inactive) | > 100 µM (inactive) | > 100 µM (inactive) | > 100 µM (inactive) | > 100 | > 100 µM (inactive) | > 100 µM (inactive) | > 100 µM (inactive) | > 100 µM (inactive) | > 100 µM (inactive) | – | > 100 µM (inactive) | > 100 µM (inactive) | > 100 µM (inactive) | – | > 100 µM (inactive) | > 100 µM (inactive) |
| CCCCOC(=O)NC(=O)c1cn(CCCOC(=O)NCCCCCCNC(=O)OCCCn2cc(C(=O)NC(=O)OCCCC)c(=O)[nH]c2=O)c(=O)[nH]c1=O | > 100 µM (inactive) | > 100 µM (inactive) | – | > 100 µM (inactive) | > 100 | > 100 µM (inactive) | > 100 µM (inactive) | – | 44.6 µM (inactive) | > 100 µM (inactive) | > 100 µM (inactive) | > 100 µM (inactive) | > 100 µM (inactive) | > 100 µM (inactive) | > 100 µM (inactive) | > 100 µM (inactive) | 23.6 µM (inactive) |
| CC(c1ccccc1)N1O[C@]12CC[C@@]1(C)C(CCCC13OCCO3)C2 (stereo not given in full) | – | 24.5 µM (inactive) | 22.2 µM (inactive) | 16.1 µM (inactive) | 23.3 | 21.7 µM (inactive) | 3.72 µM (inactive) | – | 38.4 µM (inactive) | 18.7 µM (inactive) | 17.5 µM (inactive) | 16.7 µM (inactive) | 43.6 µM (inactive) | 22 µM (inactive) | > 100 µM (inactive) | 29 µM (inactive) | 11.1 µM (inactive) |
| C#CCOCn1cnc2c(S)ncnc21 | > 100 µM (inactive) | > 100 µM (inactive) | > 100 µM (inactive) | – | > 100 | > 100 µM (inactive) | > 100 µM (inactive) | – | > 100 µM (inactive) | > 100 µM (inactive) | > 100 µM (inactive) | > 100 µM (inactive) | > 100 µM (inactive) | > 100 µM (inactive) | > 100 µM (inactive) | > 100 µM (inactive) | > 100 µM (inactive) |
